Test results as given in patent US20240041042A1, “1-(PYRIDYL)-5-AZINYLPYRAZOLE DERIVATIVES, AND THEIR USE FOR CONTROL OF UNDESIRED PLANT GROWTH” (Bayer Aktiengesellschaft, priority 2020, published 2024).

Key:
Assay type in all cases: in vivo
[1] = system: Verconica persica (VERPE); experiment: Post-emergence herbicidal action against VERPE
Method in brief: (§1)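 Greenhouse plants sprayed at the one-leaf stage, 2–3 weeks after sowing, with WP or EC formulations plus 0.5% additive at 600 l/ha water. Activity rated visually after about 3 weeks versus untreated controls (100% = dead, 0% = like control), at 320 g/ha or lower.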

[2] = system: Abutilon theophrasti (ABUTH); experiment: Pre-emergence herbicidal action against ABUTH; conditions: 100% = plants have died
Method in brief: (§2)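 Seeds sown in pots and covered with soil; WP or EC formulations sprayed onto the soil surface at 600 l/ha water with 0.5% additive, at 320 g/ha or lower. Greenhouse growth for about 3 weeks, then visual scoring as % effect against untreated controls (100% = plants dead).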

[3] = system: Alopecurus myosuroides (ALOMY); experiment: Pre-emergence herbicidal action against ALOMY; conditions: scored visually after about 3 weeks, 100% = plants have died
Method in brief: as §2

[4] = system: Lolium rigidum (LOLRI); experiment: Post-emergence herbicidal action against LOLRI
Method in brief: as §1

[5] = system: Pharbitis purpurea (PHBPU); experiment: Pre-emergence herbicidal action against PHBPU
Method in brief: as §2

[6] = system: Matricaria inodora (MATIN); experiment: Post-emergence herbicidal action against MATIN
Method in brief: as §1

[7] = system: Viola tricolor (VIOTR); experiment: Post-emergence herbicidal action against VIOTR
Method in brief: as §1

[8] = system: Verconica persica (VERPE); experiment: Pre-emergence herbicidal action against VERPE
Method in brief: as §2

[9] = system: Echinochloa crus-galli (ECHCG); experiment: Post-emergence herbicidal action against ECHCG
Method in brief: as §1

[10] = system: Viola tricolor (VIOTR); experiment: Pre-emergence herbicidal action against VIOTR
Method in brief: as §2

[11] = system: Lolium rigidum (LOLRI); experiment: Pre-emergence herbicidal action against LOLRI
Method in brief: as §2

[12] = system: Echinochloa crus-galli (ECHCG); experiment: Pre-emergence herbicidal action against ECHCG
Method in brief: as §2

[13] = system: Avena fatua (AVEFA); experiment: Pre-emergence herbicidal action against AVEFA; conditions: visual scoring after about 3 weeks vs untreated controls
Method in brief: as §2

[14] = system: Amaranthus retroflexus (AMARE); experiment: Pre-emergence herbicidal action against AMARE; conditions: visual scoring after about 3 weeks vs untreated controls
Method in brief: as §2

[15] = system: Matricaria inodora (MATIN); experiment: Pre-emergence herbicidal action against MATIN
Method in brief: as §2

[16] = system: Setaria viridis (SETVI); experiment: Pre-emergence herbicidal action against SETVI
Method in brief: as §2

[17] = system: Polygonum convolvulus (POLCO); experiment: Pre-emergence herbicidal action against POLCO
Method in brief: as §2

[18] = system: Alopecurus myosuroides (ALOMY); experiment: Post-emergence herbicidal action against ALOMY; conditions: visual rating about 3 weeks after treatment vs untreated controls (100% = plants have died, 0% = like control plants)
Method in brief: as §1

[19] = system: Avena fatua (AVEFA); experiment: Post-emergence herbicidal action against AVEFA; conditions: visual rating about 3 weeks after treatment
Method in brief: as §1

[20] = system: Pharbitis purpurea (PHBPU); experiment: Post-emergence herbicidal action against PHBPU
Method in brief: as §1

[21] = system: Setaria viridis (SETVI); experiment: Post-emergence herbicidal action against SETVI
Method in brief: as §1

[22] = Dosage column 320 g/ha (title prints 3200 g/ha), scored visually after about 3 weeks

CCOC(=O)[C@@H](C)Oc1nn(-c2ncccc2F)c(-c2ccc(F)nc2)c1C(F)(F)F [Example I-308]
100%: Pre-emergence action against ABUTH [2, 22] | Pre-emergence action against ALOMY ([3]; 80 g/ha) | Pre-emergence action against ALOMY ([3]; 320 g/ha) | Post-emergence action against LOLRI in % ([4]; dosage 320 g/ha) | Pre-emergence action against VERPE in % ([8]; dosage 80 g/ha) | Pre-emergence action against VERPE in % ([8]; dosage 320 g/ha) | Pre-emergence action against VIOTR in % ([10]; 320 g/ha, Viola tricolor) | Pre-emergence action against VIOTR in % ([10]; dosage 80 g/ha) | Pre-emergence action against LOLRI in % ([11]; dosage 80 g/ha) | Pre-emergence action against LOLRI in % ([11]; dosage 320 g/ha) | Pre-emergence action against ECHCG in % ([12]; dosage 80 g/ha) | Pre-emergence action against ECHCG in % ([12]; dosage 320 g/ha) | Pre-emergence action against AVEFA in % ([13]; 80 g/ha) | Pre-emergence action against AVEFA in % ([13]; 320 g/ha) | Pre-emergence action against AMARE in % ([14]; 80 g/ha) | Pre-emergence action against AMARE in % ([14]; 320 g/ha) | Pre-emergence action against MATIN in % ([15]; dosage 80 g/ha) | Pre-emergence action against MATIN in % ([15]; dosage 320 g/ha) | Pre-emergence action against SETVI in % ([16]; dosage 320 g/ha) | Pre-emergence action against POLCO in % ([17]; dosage 80 g/ha) | Pre-emergence action against POLCO in % ([17]; dosage 320 g/ha) | Post-emergence action against ALOMY in % ([18]; 80 g/ha) | Post-emergence action against ALOMY in % ([18]; 320 g/ha)
80%: Post-emergence action against MATIN in % ([6]; dosage 80 g/ha)
90%: Post-emergence action against VERPE in % ([1]; 320 g/ha, VERPE) | Post-emergence action against VERPE in % ([1]; dosage 80 g/ha) | Post-emergence action against LOLRI in % ([4]; dosage 80 g/ha) | Pre-emergence action against PHBPU in % ([5]; dosage 80 g/ha) | Pre-emergence action against PHBPU in % ([5]; dosage 320 g/ha) | Post-emergence action against MATIN in % ([6]; dosage 320 g/ha) | Post-emergence action against VIOTR in % ([7]; 80 g/ha) | Post-emergence action against VIOTR in % ([7]; 320 g/ha) | Post-emergence action against ECHCG in % ([9]; dosage 80 g/ha) | Post-emergence action against ECHCG in % ([9]; dosage 320 g/ha) | Post-emergence action against AVEFA in % ([19]; 80 g/ha) | Post-emergence action against AVEFA in % ([19]; 320 g/ha) | Post-emergence action against PHBPU in % ([20]; dosage 320 g/ha)

COC(=O)[C@@H](C)Oc1nn(-c2ccccn2)c(-c2cncc(F)c2)c1Cl [Example I-189]
90%: Post-emergence action against VERPE in % ([1]; 320 g/ha, VERPE) | Post-emergence action against VERPE in % ([1]; dosage 80 g/ha) | Pre-emergence action against ABUTH [2, 22] | Pre-emergence action against ALOMY ([3]; 320 g/ha) | Pre-emergence action against PHBPU in % ([5]; dosage 80 g/ha) | Pre-emergence action against PHBPU in % ([5]; dosage 320 g/ha) | Post-emergence action against MATIN in % ([6]; dosage 80 g/ha) | Post-emergence action against MATIN in % ([6]; dosage 320 g/ha) | Post-emergence action against VIOTR in % ([7]; 80 g/ha) | Post-emergence action against VIOTR in % ([7]; 320 g/ha) | Pre-emergence action against VERPE in % ([8]; dosage 80 g/ha) | Post-emergence action against ECHCG in % ([9]; dosage 80 g/ha) | Post-emergence action against ECHCG in % ([9]; dosage 320 g/ha) | Pre-emergence action against ECHCG in % ([12]; dosage 80 g/ha) | Post-emergence action against SETVI in % ([21]; dosage 80 g/ha) | Post-emergence action against SETVI in % ([21]; dosage 320 g/ha) | Pre-emergence action against AVEFA in % ([13]; 80 g/ha) | Pre-emergence action against AVEFA in % ([13]; 320 g/ha) | Pre-emergence action against MATIN in % ([15]; dosage 80 g/ha) | Post-emergence action against ALOMY in % ([18]; 320 g/ha) | Post-emergence action against AVEFA in % ([19]; 80 g/ha) | Post-emergence action against AVEFA in % ([19]; 320 g/ha) | Post-emergence action against PHBPU in % ([20]; dosage 80 g/ha) | Post-emergence action against PHBPU in % ([20]; dosage 320 g/ha)
80%: Pre-emergence action against ABUTH ([2]; 80 g/ha, scored visually after about 3 weeks vs untreated controls, 0% = like control plants) | Pre-emergence action against ALOMY ([3]; 80 g/ha) | Post-emergence action against ALOMY in % ([18]; 80 g/ha)
100%: Post-emergence action against LOLRI in % ([4]; dosage 80 g/ha) | Post-emergence action against LOLRI in % ([4]; dosage 320 g/ha) | Pre-emergence action against VERPE in % ([8]; dosage 320 g/ha) | Pre-emergence action against VIOTR in % ([10]; 320 g/ha, Viola tricolor) | Pre-emergence action against VIOTR in % ([10]; dosage 80 g/ha) | Pre-emergence action against LOLRI in % ([11]; dosage 80 g/ha) | Pre-emergence action against LOLRI in % ([11]; dosage 320 g/ha) | Pre-emergence action against ECHCG in % ([12]; dosage 320 g/ha) | Pre-emergence action against AMARE in % ([14]; 80 g/ha) | Pre-emergence action against AMARE in % ([14]; 320 g/ha) | Pre-emergence action against MATIN in % ([15]; dosage 320 g/ha) | Pre-emergence action against SETVI in % ([16]; dosage 80 g/ha) | Pre-emergence action against SETVI in % ([16]; dosage 320 g/ha) | Pre-emergence action against POLCO in % ([17]; dosage 80 g/ha) | Pre-emergence action against POLCO in % ([17]; dosage 320 g/ha)
